Experiments:
[1] = target: Aldo-keto reductase family 1 member B10 (Homo sapiens, UniProt O60218); test: Inhibition of wild-type N-terminal 6-His tagged AKR1B10 (unknown origin) expressed in Escherichia coli BL21(DE3) assessed as pyridine-3-aldehyde reduction by spectrophotometry
[2] = target: T1, Aldo-keto reductase family 1 member B1 (Homo sapiens, UniProt P15121); test: Inhibition of human AR by fluorescence assay
[3] = target: T1, Aldo-keto reductase family 1 member B1; test: Inhibition of human AR

Sequence of Aldo-keto reductase family 1 member B10 (O60218 whole entry): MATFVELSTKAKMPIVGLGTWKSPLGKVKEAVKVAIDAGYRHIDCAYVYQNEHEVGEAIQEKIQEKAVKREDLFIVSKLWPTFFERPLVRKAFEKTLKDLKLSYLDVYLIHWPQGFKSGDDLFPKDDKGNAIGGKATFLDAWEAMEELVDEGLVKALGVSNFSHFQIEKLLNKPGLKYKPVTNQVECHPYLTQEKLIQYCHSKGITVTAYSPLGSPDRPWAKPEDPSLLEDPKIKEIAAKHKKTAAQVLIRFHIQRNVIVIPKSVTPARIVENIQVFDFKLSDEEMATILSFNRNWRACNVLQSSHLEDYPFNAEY

`Cc1cccc(Nc2ccccc2C(=O)O)c1C` [MEFENAMIC ACID] was tested, and the IC50 [1] was 1600 nM and the IC50 [2] was 77000 nM.
`O=C(O)Cc1ccccc1Nc1c(Cl)cccc1Cl` [DICLOFENAC] showed an IC50 [1] of 1900 nM.
`O=C(O)c1ccccc1Nc1cccc(C(F)(F)F)c1` [FLUFENAMIC ACID] showed an IC50 [1] of 760 nM.
With `CC(=O)Oc1ccccc1C(=O)Nc1ncc([N+](=O)[O-])s1` [NITAZOXANIDE] the IC50 [3] was 8220 nM.
